Measured values reported in patent US20250188078A1, “SMALL MOLECULE INHIBITORS OF THE CRL4 UBIQUITIN LIGASE” (Cornell University, priority 2022, published 2025).

How the values were obtained:
[1] = target: CUL4A-DDB1-BPB interaction (Homo sapiens (Human), UniProt Q16531); test: AlphaLISA in vitro binding assay, CUL4A and DDB1-BPB binding; settings: inhibition of CUL4A and DDB1-BPB binding
Excerpt: AlphaLISA IC50 (see Table 1, column 4) means the half maximal inhibitory concentration of compound that inhibits CUL4A and DDB1-BPB binding. Our lab established and optimized 384 well-based AlphaLISA in vitro binding assay for testing small molecule inhibitory activity. Small molecule libraries were screened for compounds that disrupt CUL4A-DDB1-BPB interaction using AlphaScreen detection beads (PerkinElmer, #AL112C and #6765300) following the manufacturer's protocol (https://www.perkinelmer.com/PDFs/downloads/GDE-Alphatech.pdf, hereby incorporated by reference in its entirety for all purposes). The 384-well assay plates (Greiner Bio-one, #781075) were read in Synergy Neo2 Hybrid Multi-Mode Reader (BioTek). The IC50 was calculated by Prism 8 XY analysis nonlinear regression (curve fit-Log(inhibitor) vs response).

[2] = tested on: CUL4A^high MDA-MB-468 breast cancer cells; test: Cell killing in CUL4-high MDA-MB-468 cells (CellTiter Glo); assay type: cell-based; settings: Homo sapiens, 192 h; MDA-MB-468 cells, 8 days treatment; read-out: EC50 CUL4-High Cells (cell killing)
Method: EC50 refers to concentration of compound that induces 50% killing of CUL4A^high MDA-MB-468 cells (see Table 1, column 6). CUL4A^high MDA-MB-468 breast cancer cells were seeded in 96 well plates. After 24 hours, cells were treated with DMSO or compounds. Change fresh medium and compounds. After 8 days treatment, cell viability was examined by using CellTiter Glo kit (Promega #7570) following the manufacturer's guidelines (https://www.promega.com/-/media/files/resources/protocols/technicalbulletins/0/celltiter-glo-luminescent-cell-viability-assay protocol.pdf?rev=0d95c232094b41daa06d0c110d1d916f&sc_lang=en, hereby incorporated by reference in its entirety for all purposes). EC50 concentration was calculated by Prism 8 XY analysis nonlinear regression (curve fit-Log(inhibitor) vs response). Lower EC50 indicates high cell killing potential in CUL4^high MDA-MB-468 cells.
CUL4A^high MDA-MB-468, CUL4^low (T47D), and MCF7 breast cancer cells were seeded in 96 well plates separately. Cells were treated with DMSO, or from 0 to 20 μM compound respectively. Replace with fresh medium and compounds every 48 hours. After 8 days treatment, cell viability was examined by CellTiter Glo kit (Promega #7570). First, transfer the appropriate volume (10 ml for Cat. #G7570) of CellTiter-Glo® Buffer into the amber bottle containing CellTiter-Glo® Substrate to reconstitute the lyophilized enzyme/substrate mixture. This forms the CellTiter-Glo® Reagent. Second, add CellTiter-Glo® Reagent in an equal volume (100 μl per well for 96-well plates) to all wells. Mix contents for 2 minutes on an orbital shaker to induce cell lysis. Incubate at room temperature for 15 minutes to stabilize luminescent signal. Then record luminescence. EC50 concentration was calculated by Prism 8 XY analysis nonlinear regression (curve fit-Log(inhibitor) vs response).

[3] = Dynamic light scattering (DLS) solubility assay; assay type: physicochemical; settings: normalized intensity ratio of 25 μM compound vs DMSO, in PBS
Method: Dynamic light scattering (DLS) (see Table 1, column 3) is a tool for studying the diffusion behavior of macromolecules in solution. To profile compound solubility, DLS assay was developed for measuring aggregation of small molecule compounds. Compound stock solution was prepared in DMSO. Dilution series were made for each compound in DMSO to ensure a final 1× assay concentration range of 200 μM to 0.78 μM. For example, if the final DMSO concentration was 1%, compounds were prepared at 100× concentrations ranging from […] to 78 μM. Dilute compounds in PBS solution to final concentration. Place 60 μl/well in 96 well plates and 3 replicates for each sample. Data were collected using a DynaPro Plate Reader III (WYATT Technologies, Inc., USA). The instrument was adjusted to measure the optimal light scattering intensity according to the manufacturer's instructions. […] The ratio over 2 means (−) insoluble. The ratio below 2 means (+) soluble and around 2 means (+/−).

[4] = tested on: UV-induced CUL4-dependent DDB2 degradation in MEF-F-DDB2 cells; test: Cell-based assay for inhibition of UV-induced CUL4-dependent DDB2 degradation; set-up: key: (+) means that the normalized DDB2/α-tubulin ratio is higher in the compound treated sample than DMSO treated sample; (−) means that no change happens between compound treated sample with control sample; settings: DDB2/α-tubulin by Western blot
Method: Cell-based assay for inhibition of UV-induced CUL4-dependent DDB2 degradation by small molecule CUL4 inhibitors (see Table 1, column 5). Briefly, MEF-F-DDB2 cells were seeded in 6-well plates. DMSO or indicated concentrations of compounds were added to MEF-F-DDB2 cells growing in serum-free medium. MEF-F-DDB2 cells were washed once with PBS and subsequently irradiated with a Philips TUV lamp (predominantly 254 nm) at a dose rate of 0.2 W/m^2. DMSO or compounds were added to MEF-F-DDB2 cells, and then cells were harvested. The cells were lysed, and equal amounts of proteins were resolved on SDS-PAGE gel and Flag-DDB2 levels were detected using anti-DDB2 (D4C4) rabbit antibody (Cell signaling, #5416S). α-tubulin (Proteintech, #66031-1-Ig) was used as an internal loading control. (+) means that the normalized DDB2/α-tubulin ratio is higher in the compound treated sample than DMSO treated sample. (−) means that no change happens between compound treated sample with control sample.

Sequence of CUL4A-DDB1-BPB interaction (Q16531 403-706): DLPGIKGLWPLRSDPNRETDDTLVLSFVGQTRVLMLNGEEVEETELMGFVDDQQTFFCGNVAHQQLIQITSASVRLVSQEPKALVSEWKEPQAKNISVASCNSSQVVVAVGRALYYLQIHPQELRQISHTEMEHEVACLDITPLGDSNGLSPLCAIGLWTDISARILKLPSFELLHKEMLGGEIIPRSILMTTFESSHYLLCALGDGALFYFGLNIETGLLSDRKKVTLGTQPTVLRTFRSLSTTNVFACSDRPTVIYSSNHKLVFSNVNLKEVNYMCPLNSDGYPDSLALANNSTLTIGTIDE

Row | SMILES | IC50 [1] [µM] | EC50 [2] [µM] | Solubility (DLS Assay) [3] | AlphaLisa IC50 [1] | Degradation Inhibition (inhibition of UV-induced DDB2 degradation) [4]
1 | CN(c1ccc(-c2nc(C(=O)O)cc3c2[nH]c2cc(F)c(F)cc23)cc1)S(=O)(=O)c1ccccc1 [PA1-7, 6,7-difluoro-1-(4-(N-methylphenylsulfonamido)phenyl)-9H-pyrido[3,4-b]indole-3-carboxylic acid] | 0.127 | 8.65 | -(insoluble) |  | 
2 | COC(=O)c1cc2c([nH]c3cc(C#N)ccc32)c(-c2ccc(N(C)S(=O)(=O)c3ccccc3)cc2)n1 [PA1-9 ESTER, methyl 7-cyano-1-(4-(N-methylphenylsulfonamido)phenyl)-9H-pyrido[3,4-b]indole-3-carboxylate] |  |  | -(insoluble) | Neg | 
3 | CN(c1ccc(-c2nc(C(=O)O)cc3c2[nH]c2cc(C#N)ccc23)cc1)S(=O)(=O)c1ccccc1 [PA1-9, 7-cyano-1-(4-(N-methylphenylsulfonamido)phenyl)-9H-pyrido[3,4-b]indole-3-carboxylic acid] | 0.085 | 7.87 | -(insoluble) |  | +
4 | O=C(O)c1cc2c([nH]c3cc(F)ccc32)c(-c2ccc(OCC3CCOCC3)cc2)n1 [PA1-11E, 7-fluoro-1-(4-((tetrahydro-2H-pyran-4-yl)methoxy)phenyl)-9H-pyrido[3,4-b]indole-3-carboxylic acid] |  | > 20 |  |  | −
5 | O=C(O)c1cc2c([nH]c3cc(F)ccc32)c(-c2ccc(OCc3ccncc3)cc2)n1 [PA1-11F, 7-fluoro-1-(4-(pyridin-4-ylmethoxy)phenyl)-9H-pyrido[3,4-b]indole-3-carboxylic acid] |  | > 20 |  |  | −
6 | O=C(O)c1cc2c([nH]c3cc(F)ccc32)c(-c2ccc(OCc3cccnc3)cc2)n1 [PA1-11G, 7-fluoro-1-(4-(pyridin-3-ylmethoxy)phenyl)-9H-pyrido[3,4-b]indole-3-carboxylic acid] |  | > 20 |  |  | −
7 | O=C(O)c1cc2c([nH]c3cc(F)ccc32)c(-c2ccc(OCc3ccccn3)cc2)n1 [PA1-11H, 7-fluoro-1-(4-(pyridin-2-ylmethoxy)phenyl)-9H-pyrido[3,4-b]indole-3-carboxylic acid] |  |  | -(insoluble) |  | −
8 | O=C(O)c1cc2c([nH]c3cc(F)ccc32)c(-c2ccc(OCc3ccsc3)cc2)n1 [PA1-11I, 7-fluoro-1-(4-(thiophen-3-ylmethoxy)phenyl)-9H-pyrido[3,4-b]indole-3-carboxylic acid] |  | 14 |  |  | −
9 | O=C(O)c1cc2c([nH]c3cc(F)ccc32)c(-c2ccc(OCc3cscn3)cc2)n1 [PA1-11K, 7-fluoro-1-(4-(thiazol-4-ylmethoxy)phenyl)-9H-pyrido[3,4-b]indole-3-carboxylic acid] |  | > 20 |  |  | −
10 | Cc1cc(N(C)S(=O)(=O)c2ccccc2)ccc1-c1nc(C(=O)O)cc2c1[nH]c1cc(F)ccc12 [PA1-12A, 7-fluoro-1-(2-methyl-4-(N-methylphenylsulfonamido)phenyl)-9H-pyrido[3,4-b]indole-3-carboxylic acid] | 2.4 | 9.84 |  |  | −
11 | COC(=O)c1cc2c([nH]c3cc(F)ccc32)c(-c2ccc(N(C)S(=O)(=O)c3ccc(C#N)cc3)cc2)n1 [PA1-13A-2 ESTER] |  | > 20 |  | Neg | +
12 | CN(c1ccc(-c2nc(C(=O)O)cc3c2[nH]c2cc(F)ccc23)cc1)S(=O)(=O)c1ccc(C#N)cc1 [PA1-13A-2, 1-(4-((4-cyano-N-methylphenyl)sulfonamido)phenyl)-7-fluoro-9H-pyrido[3,4-b]indole-3-carboxylic acid] | 2.51 | 3.54 |  |  | −
13 | CN1CCN(c2ccc(S(=O)(=O)N(C)c3ccc(-c4nc(C(=O)O)cc5c4[nH]c4cc(F)ccc45)cc3)cc2)CC1 [PA1-13A-7, 7-fluoro-1-(4-((N-methyl-4-(4-methylpiperazin-1-yl)phenyl)sulfonamido)phenyl)-9H-pyrido[3,4-b]indole-3-carboxylic acid] | 0.38 | 14.5 |  |  | −
14 | COC(=O)c1cc2c([nH]c3cc(F)cc(C)c32)c(-c2ccc(N(C)S(=O)(=O)c3ccccc3)cc2)n1 [PA1-14 ESTER, methyl 1-[4-[benzenesulfonyl(methyl)amino]phenyl]-7-fluoro-5-methyl-9H-pyrido[3,4-b]indole-3-carboxylate] |  |  | -(insoluble) | Neg | −
15 | Cc1ccc(-c2nc(C(=O)O)cc3c2[nH]c2ccccc23)cc1 [PA2] | 3.43 ± 1.57 |  | -(insoluble) |  | +
16 | O=C(O)c1cc2c([nH]c3ccccc32)c(-c2ccc(F)cc2)n1 [PA3] | 1.41 ± 0.31 |  | +/− |  | +
17 | O=C(O)c1cc2c([nH]c3ccccc32)c(-c2cccc(F)c2)n1 [PA5] | 2.34 ± 0.77 |  | -(insoluble) |  | 
18 | Cc1cccc(-c2nc(C(=O)O)cc3c2[nH]c2ccccc23)c1 [PA7] | 10.2 ± 3.33 |  | -(insoluble) |  | 
19 | COc1cccc(-c2nc(C(=O)O)cc3c2[nH]c2ccccc23)c1 [PA8] | 7.75 ± 1.82 |  | -(insoluble) |  | 
20 | NC(=O)c1cc2c([nH]c3ccccc32)c(-c2ccc([N+](=O)[O-])cc2)n1 [PA9, 1-(4-nitrophenyl)-9H-pyrido[3,4-b]indole-3-carboxamide] |  |  | -(insoluble) | Neg | +
21 | N#Cc1ccc(-c2nc(C(=O)O)cc3c2[nH]c2ccccc23)cc1 [PA19] | 2.01 ± 0.44 |  | -(insoluble) |  | +
22 | O=C(O)c1cc2c([nH]c3ccccc32)c(-c2cc(F)c(F)c(F)c2)n1 [PA33] | 2 ± 0.38 |  | -(insoluble) |  | 
23 | CS(=O)(=O)c1ccc(-c2nc(C(=O)O)cc3c2[nH]c2ccc(F)cc23)cc1 [PA71] | 0.36 ± 0.04 |  | -(insoluble) |  | −
24 | COc1ccc2[nH]c3c(-c4ccc(S(C)(=O)=O)cc4)nc(C(=O)O)cc3c2c1 [PA74] | 1.83 ± 0.09 |  | -(insoluble) |  | +
